Earlier results, collected in patent publication US8716300B2, “Frequency modulated drug delivery (FMDD)” (Synthonics, Inc., priority 2008, dated 2014).

Columns and labels:
[1] = test system: MES induced seizures; settings: combined treatment of dizocilpine with valproate
[2] = test system: reserpinized rats; settings: remacemide 5 mg/kg administered with lowest effective dose of levodopa (75 mg/kg)

## C[C@]12N[C@H](Cc3ccccc31)c1ccccc12 [dizocilpine]
[1]
  protection against MES induced seizures: 50%
[1]; MES induced seizures
  reduction in the ED50 of valproate: ~3 fold

## CC(Cc1ccccc1)(NC(=O)CN)c1ccccc1 (stereo not drawn) [remacemide]
[2]
  increase in horizontal motor activity over levodopa given alone: 9 fold
